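A five-concentration, 48-hour dose response in 96-well plates underlies each endpoint, interpolated linearly between surrounding concentrations. TGI is the concentration that stops growth completely.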
Columns and labels:
Assay in all cases: NCI anticancer screen, dose series, 48 h
786-0 renal = tested on: 786-0 renal
A498 renal = tested on: A498 renal
A549 NSCLC = tested on: A549 NSCLC
ACHN renal = tested on: ACHN renal
BT-549 breast = tested on: BT-549 breast
CAKI-1 renal = tested on: CAKI-1 renal
CCRF-CEM leukemia = tested on: CCRF-CEM leukemia
COLO 205 colon = tested on: COLO 205 colon
DU-145 prostate = tested on: DU-145 prostate
EKVX NSCLC = tested on: EKVX NSCLC
HCC-2998 colon = tested on: HCC-2998 colon
HCT-116 colon = tested on: HCT-116 colon
HCT-15 colon = tested on: HCT-15 colon
HL-60(TB) leukemia = tested on: HL-60(TB) leukemia
HOP-62 NSCLC = tested on: HOP-62 NSCLC
HOP-92 NSCLC = tested on: HOP-92 NSCLC
HS 578T breast = tested on: HS 578T breast
HT29 colon = tested on: HT29 colon
IGROV1 ovarian = tested on: IGROV1 ovarian
K-562 leukemia = tested on: K-562 leukemia
KM12 colon = tested on: KM12 colon
LOX IMVI melanoma = tested on: LOX IMVI melanoma
M14 melanoma = tested on: M14 melanoma
MALME-3M melanoma = tested on: MALME-3M melanoma
MCF7 breast = tested on: MCF7 breast
MDA-MB-231 breast = tested on: MDA-MB-231 breast
MDA-MB-435 = tested on: MDA-MB-435
MDA-N = tested on: MDA-N
NCI-H226 lung = tested on: NCI-H226 lung
NCI-H23 lung = tested on: NCI-H23 lung
NCI-H460 lung = tested on: NCI-H460 lung
NCI-H522 lung = tested on: NCI-H522 lung
NCI/ADR-RES ovarian = tested on: NCI/ADR-RES ovarian
OVCAR-3 ovarian = tested on: OVCAR-3 ovarian
OVCAR-4 ovarian = tested on: OVCAR-4 ovarian
OVCAR-5 ovarian = tested on: OVCAR-5 ovarian
OVCAR-8 ovarian = tested on: OVCAR-8 ovarian
PC-3 prostate = tested on: PC-3 prostate
RPMI-8226 leukemia = tested on: RPMI-8226 leukemia
RXF 393 renal = tested on: RXF 393 renal
SF-268 CNS = tested on: SF-268 CNS
SF-295 CNS = tested on: SF-295 CNS
SF-539 CNS = tested on: SF-539 CNS
SK-MEL-2 melanoma = tested on: SK-MEL-2 melanoma
SK-MEL-28 melanoma = tested on: SK-MEL-28 melanoma
SK-MEL-5 melanoma = tested on: SK-MEL-5 melanoma
SK-OV-3 ovarian = tested on: SK-OV-3 ovarian
SN12C renal = tested on: SN12C renal
SNB-19 CNS = tested on: SNB-19 CNS
SNB-75 CNS = tested on: SNB-75 CNS
SR leukemia = tested on: SR leukemia
SW-620 colon = tested on: SW-620 colon
T-47D breast = tested on: T-47D breast
TK-10 renal = tested on: TK-10 renal
U251 CNS = tested on: U251 CNS
UACC-257 melanoma = tested on: UACC-257 melanoma
UACC-62 melanoma = tested on: UACC-62 melanoma
UO-31 renal = tested on: UO-31 renal
MOLT-4 leukemia = tested on: MOLT-4 leukemia

O=C(Cc1csc2[n+]1C(=O)/C(=C/c1ccc(Cl)cc1)S2)Nc1ccccc1
TGI (786-0 renal): 90.9 µM | TGI (A498 renal): 40.1 µM | TGI (A549 NSCLC): 84.6 µM | TGI (ACHN renal): 61.6 µM | TGI (BT-549 breast): 60.3 µM | TGI (CAKI-1 renal): > 100 µM | TGI (CCRF-CEM leukemia): > 100 µM | TGI (COLO 205 colon): 30.2 µM | TGI (DU-145 prostate): > 100 µM | TGI (EKVX NSCLC): 53.4 µM | TGI (HCC-2998 colon): 39.3 µM | TGI (HCT-116 colon): 42.5 µM | TGI (HCT-15 colon): 90.6 µM | TGI (HL-60(TB) leukemia): 74.2 µM | TGI (HOP-62 NSCLC): 30.4 µM | TGI (HOP-92 NSCLC): 78.4 µM | TGI (HS 578T breast): > 100 µM | TGI (HT29 colon): 76.1 µM | TGI (IGROV1 ovarian): > 100 µM | TGI (K-562 leukemia): > 100 µM | TGI (KM12 colon): 82.8 µM | TGI (LOX IMVI melanoma): 34.4 µM | TGI (M14 melanoma): > 100 µM | TGI (MALME-3M melanoma): 90.6 µM | TGI (MCF7 breast): 66.1 µM | TGI (MDA-MB-231 breast): 37.3 µM | TGI (MDA-MB-435): 95 µM | TGI (MDA-N): > 100 µM | TGI (NCI-H226 lung): 49.6 µM | TGI (NCI-H23 lung): 91.3 µM | TGI (NCI-H460 lung): 48.8 µM | TGI (NCI-H522 lung): 40.5 µM | TGI (NCI/ADR-RES ovarian): 82.4 µM | TGI (OVCAR-3 ovarian): 27.7 µM | TGI (OVCAR-4 ovarian): > 100 µM | TGI (OVCAR-5 ovarian): 80.9 µM | TGI (OVCAR-8 ovarian): > 100 µM | TGI (PC-3 prostate): 41.3 µM | TGI (RPMI-8226 leukemia): > 100 µM | TGI (RXF 393 renal): 42.6 µM | TGI (SF-268 CNS): 78 µM | TGI (SF-295 CNS): > 100 µM | TGI (SF-539 CNS): 84.2 µM | TGI (SK-MEL-2 melanoma): 37 µM | TGI (SK-MEL-28 melanoma): > 100 µM | TGI (SK-MEL-5 melanoma): 26.6 µM | TGI (SK-OV-3 ovarian): 99.5 µM | TGI (SN12C renal): > 100 µM | TGI (SNB-19 CNS): > 100 µM | TGI (SNB-75 CNS): 94.6 µM | TGI (SR leukemia): > 100 µM | TGI (SW-620 colon): > 100 µM | TGI (T-47D breast): > 100 µM | TGI (TK-10 renal): 87.7 µM | TGI (U251 CNS): 32.1 µM | TGI (UACC-257 melanoma): 58.3 µM | TGI (UACC-62 melanoma): 32 µM | TGI (UO-31 renal): > 100 µM

CC(=O)O[C@H]1[C@@H](OC2CCCC2(c2ccccc2)c2ccccc2)O[N+]([O-])=C[C@@H]1c1ccccc1 (some centres undefined)
TGI (786-0 renal): 3.26 µM | TGI (A498 renal): 23.4 µM | TGI (A549 NSCLC): 30.9 µM | TGI (ACHN renal): 12.5 µM | TGI (BT-549 breast): 17.5 µM | TGI (CAKI-1 renal): 11 µM | TGI (CCRF-CEM leukemia): 14 µM | TGI (COLO 205 colon): > 46 µM | TGI (DU-145 prostate): 23.7 µM | TGI (EKVX NSCLC): 30.4 µM | TGI (HCC-2998 colon): 27.2 µM | TGI (HCT-116 colon): 10.5 µM | TGI (HCT-15 colon): 16.7 µM | TGI (HL-60(TB) leukemia): 5.71 µM | TGI (HOP-62 NSCLC): 38.2 µM | TGI (HOP-92 NSCLC): 18.2 µM | TGI (HS 578T breast): 20.5 µM | TGI (HT29 colon): 6.94 µM | TGI (IGROV1 ovarian): 7.61 µM | TGI (K-562 leukemia): > 32.9 µM | TGI (KM12 colon): 23.4 µM | TGI (LOX IMVI melanoma): 5.04 µM | TGI (M14 melanoma): 18.5 µM | TGI (MCF7 breast): 11.3 µM | TGI (MDA-MB-231 breast): 40.9 µM | TGI (MDA-MB-435): 11.3 µM | TGI (MDA-N): 15.6 µM | TGI (MOLT-4 leukemia): 7.54 µM | TGI (NCI-H226 lung): 80.2 µM | TGI (NCI-H23 lung): 35.9 µM | TGI (NCI-H460 lung): 60.2 µM | TGI (NCI-H522 lung): 2.62 µM | TGI (NCI/ADR-RES ovarian): 12.9 µM | TGI (OVCAR-3 ovarian): 21 µM | TGI (OVCAR-4 ovarian): 21.4 µM | TGI (OVCAR-5 ovarian): 35.6 µM | TGI (OVCAR-8 ovarian): 6.53 µM | TGI (PC-3 prostate): 21.2 µM | TGI (RPMI-8226 leukemia): 18.9 µM | TGI (RXF 393 renal): 8.48 µM | TGI (SF-268 CNS): 13.4 µM | TGI (SF-295 CNS): 21.7 µM | TGI (SK-MEL-2 melanoma): 24.1 µM | TGI (SK-MEL-28 melanoma): 8.65 µM | TGI (SK-MEL-5 melanoma): 25.6 µM | TGI (SK-OV-3 ovarian): 29 µM | TGI (SN12C renal): 16.9 µM | TGI (SNB-19 CNS): 29.7 µM | TGI (SNB-75 CNS): 18 µM | TGI (SR leukemia): > 20.3 µM | TGI (SW-620 colon): 17.6 µM | TGI (T-47D breast): > 37.9 µM | TGI (TK-10 renal): 23.2 µM | TGI (U251 CNS): 27.3 µM | TGI (UACC-257 melanoma): 23.6 µM | TGI (UACC-62 melanoma): 15.7 µM | TGI (UO-31 renal): 23.6 µM

O=C(CNc1ccc([N+](=O)[O-])cc1)Nn1c(-c2ccccc2)nc2ccccc2c1=O
TGI (786-0 renal): 6.26 µM | TGI (A498 renal): 19.3 µM | TGI (A549 NSCLC): 25.8 µM | TGI (ACHN renal): 14.6 µM | TGI (BT-549 breast): 4.25 µM | TGI (CAKI-1 renal): 5.15 µM | TGI (CCRF-CEM leukemia): > 21.6 µM | TGI (COLO 205 colon): 5.31 µM | TGI (DU-145 prostate): 23.3 µM | TGI (EKVX NSCLC): 28.6 µM | TGI (HCC-2998 colon): 22.6 µM | TGI (HCT-116 colon): 13 µM | TGI (HCT-15 colon): 7.64 µM | TGI (HL-60(TB) leukemia): 14 µM | TGI (HOP-62 NSCLC): 16.5 µM | TGI (HOP-92 NSCLC): 6.66 µM | TGI (HS 578T breast): 8.22 µM | TGI (HT29 colon): 13.6 µM | TGI (IGROV1 ovarian): 12.9 µM | TGI (K-562 leukemia): 5.52 µM | TGI (KM12 colon): 15.9 µM | TGI (LOX IMVI melanoma): 2.23 µM | TGI (M14 melanoma): 8.59 µM | TGI (MALME-3M melanoma): 4.82 µM | TGI (MCF7 breast): 7.08 µM | TGI (MDA-MB-231 breast): 9.4 µM | TGI (MDA-MB-435): 14.6 µM | TGI (MDA-N): 13.8 µM | TGI (MOLT-4 leukemia): 10.6 µM | TGI (NCI-H226 lung): 25.2 µM | TGI (NCI-H23 lung): 7.13 µM | TGI (NCI-H460 lung): 14.3 µM | TGI (NCI-H522 lung): 4.79 µM | TGI (NCI/ADR-RES ovarian): 7.65 µM | TGI (OVCAR-3 ovarian): 20.4 µM | TGI (OVCAR-4 ovarian): 10.3 µM | TGI (OVCAR-5 ovarian): 16.3 µM | TGI (OVCAR-8 ovarian): 18 µM | TGI (PC-3 prostate): 13.2 µM | TGI (RPMI-8226 leukemia): 14.8 µM | TGI (RXF 393 renal): 8.84 µM | TGI (SF-268 CNS): 16.4 µM | TGI (SF-295 CNS): 29.8 µM | TGI (SF-539 CNS): 6.61 µM | TGI (SK-MEL-2 melanoma): 8.37 µM | TGI (SK-MEL-28 melanoma): 10.8 µM | TGI (SK-MEL-5 melanoma): 2.61 µM | TGI (SK-OV-3 ovarian): 14.9 µM | TGI (SN12C renal): 5.19 µM | TGI (SNB-19 CNS): 23.1 µM | TGI (SNB-75 CNS): 11.3 µM | TGI (SR leukemia): > 37.4 µM | TGI (SW-620 colon): 5.02 µM | TGI (T-47D breast): 9.63 µM | TGI (TK-10 renal): 17 µM | TGI (U251 CNS): 4.47 µM | TGI (UACC-257 melanoma): 36.7 µM | TGI (UACC-62 melanoma): 2.19 µM | TGI (UO-31 renal): 14.1 µM
